In the assay the test system is midbrain dopaminergic neurons. Nature of the assay: Dopamine (DA) uptake assay in primary midbrain cultures. Format: cell-based, rat. The conditions noted are these: Rattus norvegicus, Neuron, midbrain culture, read-out: DA uptake % of control; for activity at 0.6 µM: compound concentration 0.6 μM; for activity at 2.5 µM: compound concentration 2.5 μM; for activity at 10 µM: compound concentration 10 μM; for activity at 5 µM: compound concentration 5 μM; for activity at 1.25 µM: compound concentration 1.25 μM; for activity at 20 µM: compound concentration 20 μM; for activity at 40 µM: compound concentration 40 μM. How it is done:
Primary midbrain cultures were prepared from rat embryo ventral mesencephalon as described previously by Lin et al (1994). In brief, rostral mesencephalic tegmentum of embryonic day 16 rat embryos was collected in DMEM/F12 (Hyclone SH30023.01) containing 2 mM glutamine on ice, The tissue was treated with 0.1% trypsin in Hanks' balanced salt solution (HBSS, Gibco 14175-095) for 15 min at 37° C. and dissociated mechanically by mild trituration with a fire-polished glass pipet in growth medium plus 2% heat-inactivated fetal bovine serum (FBS). The growth medium consisted of equal volumes of Dulbecco's minimal essential medium DMEM (Gibco 12100-046) and HAM's F12 nutrient mixture (Gibco 21700-075) supplemented with 33 mM glucose, 13 mM sodium bicarbonate, 5 mM HEPES, 2 mM glutamine, 25 μg/ml insulin, 100 μg/ml transferrin, 60 μM putrescine, 20 nM progesterone, 30 nM sodium selenite, 5 U/ml penicillin G and 5 μg/ml streptomycin. 24-well tissue culture plate was coated by adding 15 μg/ml poly-1-ornithine hydrobromide solution at 0.5 ml/well, incubated at room temperature for 1 hr. The coating solution was removed and the well washed 3 times with distilled water and one wash with HBSS. The dissociated cells were plated onto polyornithine-coated wells at 250,000-350,000 trypan blue-excluding viable cells per well in 500 μl of above medium containing 1% FBS. After 3 h when most of the cells had adhered to the bottom of the well, the medium was replaced with 500 μl of fresh medium without FBS. A serial dilution of the sample to be assayed for trophic activity was added to each well in duplicate at the time of medium change or within 24 h thereafter. Unless otherwise stated, cultures were incubated at 37° C. without any further medium change up to 7 days. Primary hindbrain cultures were prepared as described for the midbrain cultures except that the rostral raphe region (instead of the rostral mesencephalon) was dissected and trypsinized for 20 (instead of 15) min.
[^3H]DA uptake was measured in cultures at day 7, and all the solutions were maintained at 37° C. The growth medium was removed, and the cultures were rinsed twice with 0.25 ml of uptake buffer, which consists of HBSS (Gibco 11201-092) supplemented with 28 mM glucose, 15 mM HEPES, 1 mM ascorbic acid (an antioxidant), and […] pargyline (a monoamine oxidase inhibitor). The cultures were then incubated with 0.25 ml of fresh uptake buffer containing 50 nM [^3H]DA (NEN/DuPont) for 20 min at 37° C. [^3H]DA uptake was stopped by removing the incubation mixture, and cells were then washed twice with 0.5 ml of the uptake buffer at room temperature. To release [^3H]DA from the cells, the cultures were lysed with 0.2 ml of 0.1 N NaOH for 1 h at room temperature, the lysate was then added to 1 ml of Microscint-20 (Packard 6013621), and counted for radioactivity in a microplate scintillation counter (Packard TopCount, NXT). Background values were obtained by adding to the uptake buffer 0.5 mM GBR-12909, a specific inhibitor of the high-affinity uptake pump of the dopaminergic neurons, and were usually <5% of the ^3H uptake in untreated control cultures. Forskolin (Fk, 25 μM) was employed as a positive control.

Regarding `O=C(/C=C/c1ccccc1)Nc1ccc(S(=O)(=O)N2CCCCC2)cc1` [K′], the activity at 0.6 µM came out at 125% and the activity at 2.5 µM was 320%. As to `COc1ccccc1/C=C/C(=O)Nc1ccc(S(=O)(=O)Nc2nccs2)cc1` [K′′′], the activity at 2.5 µM was 170%. With `O=C(Nc1ccc(S(=O)(=O)Nc2nccs2)cc1)c1cc2ccccc2[nH]1` [K′′′′], the activity at 2.5 µM stood at 150%. `CCOc1ccc(C(=O)Nc2ccc(S(=O)(=O)Nc3nccs3)cc2)cc1` [L]: the activity at 10 µM was 160%. Turning to `Cc1noc(NS(=O)(=O)c2ccc(NC(=O)/C=C/c3ccccc3Cl)cc2)c1C` [L′], the activity at 5 µM is 140%.

With `O=C(/C=C/c1ccc(O)cc1)Nc1ccc(S(=O)(=O)Nc2ccccn2)cc1` [L′′′], the activity at 1.25 µM came out at 130%.

As for `COc1ccccc1/C=C\C(=O)Nc1ccc(S(=O)(=O)Nc2nccs2)cc1` [L′′′′], the activity at 2.5 µM came out at 200%. `O=C(/C=C/c1cc(F)ccc1C(F)(F)F)Nc1ccc(S(=O)(=O)Nc2nccs2)cc1` [L″]: the activity at 1.25 µM is 375%. With `O=C(/C=C/c1cccc(Cl)c1)Nc1ccc(S(=O)(=O)Nc2nccs2)cc1` [M], the activity at 0.7 µM (compound concentration 0.7 μM) was 120%. `O=C(/C=C/c1ccccc1Cl)Nc1ccc(S(=O)(=O)N2CCCCC2)cc1` [M′]: the activity at 0.6 µM worked out at 145%. With `O=C(/C=C/c1cccc(O)c1)Nc1ccc(S(=O)(=O)Nc2ccccn2)cc1` [M′′′], the activity at 5 µM is 170%. For the compound `O=C(/C=C/c1cccc(Br)c1)Nc1ccc(S(=O)(=O)Nc2nccs2)cc1` [M′′′′], the activity at 2.5 µM is 190%.

Turning to `O=C(/C=C/c1ccccc1C(F)(F)F)Nc1ccc(S(=O)(=O)Nc2nccs2)cc1` [M″], the activity at 1.25 µM is 280%.

For the compound `O=C(/C=C/c1ccc(Oc2ccccc2)cc1)Nc1ccc(S(=O)(=O)Nc2nccs2)cc1` [N], the activity at 2.5 µM was found to be 170%. With `Cc1ccc(/C=C/C(=O)Nc2ccc(S(=O)(=O)Nc3onc(C)c3C)cc2)cc1` [N′], the activity at 2.5 µM was 155%. `COc1cccc(/C=C/C(=O)Nc2ccc(S(=O)(=O)Nc3ccccn3)cc2)c1` [N′′′]: the activity at 10 µM came out at 180%.

Turning to `O=C(Nc1ccc(S(=O)(=O)Nc2nccs2)cc1)c1cc2ccccc2s1` [N′′′′], the activity at 2.5 µM was 170%.

As for `O=C(/C=C/c1ccoc1)Nc1ccc(S(=O)(=O)Nc2nccs2)cc1` [N″], the activity at 20 µM amounted to 240%. Take `O=C(/C=C/c1ccc(F)cc1)Nc1ccc(S(=O)(=O)Nc2nccs2)cc1` [O]: the activity at 20 µM was determined as 240%. `Cc1ccc(/C=C/C(=O)Nc2ccc(S(=O)(=O)Nc3nc(C)cc(C)n3)cc2)cc1` [O′]: the activity at 2.5 µM worked out at 150%. Consider `O=C(/C=C/c1ccccc1O)Nc1ccc(S(=O)(=O)Nc2ccccn2)cc1` [O′′′], for which the activity at 10 µM came to 150%. The same measure, in the same setting: the figure for `O=C(Nc1ccc(S(=O)(=O)Nc2nccs2)cc1)/C(F)=C/c1ccccc1` [O′′′′] is 200%. For the compound `O=C(/C=C/c1ccc(Br)cc1)Nc1ccc(S(=O)(=O)Nc2nccs2)cc1` [O″], the activity at 2.5 µM worked out at 290%. As to `O=C(Nc1ccc(S(=O)(=O)Nc2nccs2)cc1)c1ccc(Br)cc1` [P], the activity at 5 µM came out at 160%. With `CCCOc1ccc(/C=C/C(=O)Nc2ccc(S(=O)(=O)Nc3nccs3)cc2)cc1OC` [P′], the activity at 1.25 µM was 210%. For the compound `O=C(/C=C/c1ccccc1O)Nc1ccc(S(=O)(=O)Nc2nccs2)cc1` [P′′′], the activity at 10 µM stood at 150%.

Take `O=C(/C=C/c1ccccc1[N+](=O)[O-])Nc1ccc(S(=O)(=O)Nc2nccs2)cc1` [P′′′′]: the activity at 2.5 µM was found to be 150%. For the compound `COc1ccccc1/C=C/C(=O)Nc1ccc(S(=O)(=O)Nc2ccccn2)cc1` [P″], the activity at 5 µM worked out at 200%. Take `COc1ccc(/C=C/C(=O)Nc2ccc(S(=O)(=O)Nc3cc(C)nc(C)n3)cc2)cc1Br` [Q]: the activity at 2.5 µM turned out to be 140%. On to `O=C(CCN1C(=O)S/C(=C\c2ccccc2)C1=O)Nc1ccc(S(=O)(=O)Nc2nccs2)cc1` [Q′], for which the activity at 5 µM came out at 180%. `O=C(/C=C/c1ccccc1)Nc1ccc(S(=O)(=O)Nc2nnc[nH]2)cc1` [Q′′′]: the activity at 5 µM was 170%. `O=C(/C=C/c1ccc(F)cc1C(F)(F)F)Nc1ccc(S(=O)(=O)Nc2nc[nH]n2)cc1` [Q″]: the activity at 2.5 µM was 270%. For the compound `Cc1ccc(C(=O)Nc2ccc(S(=O)(=O)Nc3nccs3)cc2)cc1` [R], the activity at 20 µM is 140%. As to `COc1ccc(/C=C2\SC(=O)N(CCC(=O)Nc3ccc(S(=O)(=O)Nc4nccs4)cc3)C2=O)cc1` [R′], the activity at 2.5 µM turned out to be 155%. Turning to `COc1cccc(/C=C/C(=O)Nc2ccc(S(=O)(=O)Nc3nnc[nH]3)cc2)c1` [R′′′], the activity at 1.25 µM amounted to 150%.

With `CCOc1ccccc1/C=C/C(=O)Nc1ccc(S(=O)(=O)Nc2nccs2)cc1` [R′′′′], the activity at 2.5 µM was 170%. As to `CCc1ccccc1/C=C\C(=O)Nc1ccc(S(=O)(=O)Nc2nc[nH]n2)cc1` [R″], the activity at 5 µM came to 290%. Turning to `Cc1ccnc(NS(=O)(=O)c2ccc(NC(=O)/C=C/c3cccc(Cl)c3)cc2)n1` [S], the activity at 1.4 µM (compound concentration 1.4 μM) worked out at 220%.

Take `O=C(CCN1C(=O)S/C(=C\c2ccc(Cl)cc2)C1=O)Nc1ccc(S(=O)(=O)Nc2nccs2)cc1` [S′]: the activity at 1.25 µM is 150%. On to `COc1ccc(/C=C/C(=O)Nc2ccc(S(=O)(=O)Nc3nnc[nH]3)cc2)cc1` [S′′′], for which the activity at 10 µM stood at 190%. In the case of `CCOc1cccc(/C=C/C(=O)Nc2ccc(S(=O)(=O)Nc3nccs3)cc2)c1` [S′′′′], the activity at 5 µM is 170%.

As to `O=C(/C=C/c1cccc(F)c1)Nc1ccc(S(=O)(=O)Nc2nc[nH]n2)cc1` [S″], the activity at 2.5 µM amounted to 280%. Take `Cc1cccc(C(=O)Nc2ccc(S(=O)(=O)Nc3nccs3)cc2)c1` [T]: the activity at 10 µM came to 140%.

Take `O=C(Nc1ccc(S(=O)(=O)Nc2nccs2)cc1)c1sc2cc(Cl)ccc2c1Cl` [T′]: the activity at 0.6 µM was determined as 140%. Turning to `O=C(/C=C/c1ccccc1)Nc1ccc(S(=O)(=O)Nc2nncs2)cc1` [T′′′], the activity at 40 µM is 150%.

Take `O=C(/C=C/c1ccc([N+](=O)[O-])cc1)Nc1ccc(S(=O)(=O)Nc2nccs2)cc1` [T′′′′]: the activity at 5 µM was 180%. Take `Cc1ccccc1/C=C/C(=O)Nc1ccc(S(=O)(=O)Nc2nccs2)cc1` [T″]: the activity at 2.5 µM is 230%. On to `CCc1nnc(NS(=O)(=O)c2ccc(NC(=O)/C=C/c3ccc(OC)cc3OC)cc2)s1` [U], for which the activity at 10 µM was 150%.

For `CC(C)(C)c1cc(Br)ccc1OCC(=O)Nc1ccc(S(=O)(=O)Nc2nccs2)cc1` [U′], the activity at 0.6 µM was determined as 140%.

In the case of `O=C(/C=C/c1ccccc1Cl)Nc1ccc(S(=O)(=O)Nc2nncs2)cc1` [U′′′], the activity at 10 µM was 180%. With `O=C(/C=C/c1c(Cl)cccc1Cl)Nc1ccc(S(=O)(=O)Nc2nccs2)cc1` [U′′′′], the activity at 1.25 µM came to 290%. As to `O=C(/C=C/c1ccccc1Br)Nc1ccc(S(=O)(=O)Nc2ccccn2)cc1` [U″], the activity at 2.5 µM was 210%. In the case of `O=C(Nc1ccc(S(=O)(=O)Nc2nccs2)cc1)c1cccc(C(F)(F)F)c1` [V], the activity at 10 µM stood at 220%. With `O=C(Nc1ccc(S(=O)(=O)Nc2nccs2)cc1)c1cncc(Br)c1` [V′], the activity at 40 µM was determined as 130%. Turning to `O=C(/C=C/c1cccc(O)c1)Nc1ccc(S(=O)(=O)Nc2nncs2)cc1` [V′′′], the activity at 2.5 µM was 160%. On to `O=C(/C=C/c1cccc(OC(F)(F)F)c1)Nc1ccc(S(=O)(=O)Nc2nccs2)cc1` [V′′′′], for which the activity at 1.25 µM turned out to be 200%.
